Data: PMC10901950, “Neuroprotective and Anti-inflammatory Effects of Rubiscolin-6 Analogs with Proline Surrogates in Position 2” (Neurochemical Research, 2023)
Numbered stars: 1 amine (or outer) side, 2 acyl side, 3 side chain; on linkers, the order of the positions; unused ones are H or OH. Square brackets hold non-standard residues; d marks the D form. Ends that are not written are not given here. Peptide text beside a SMILES is read from it. Nip(3R) = O=C([C@@H]1CCCN([*:1])C1)[*:2]; Dmt = Cc1cc(O)cc(C)c1C[C@H](N)C(=O)O; Inp = O=C(O)C1CCNCC1

How the values were obtained:
δ-opioid receptor [1] = biological target: T1, δ-opioid receptor (Homo sapiens, UniProt P41143); assay: Opioid receptor binding assay, [3H][Ile5,6]deltorphin-2 competition; parameters: purchased; host or cells: CHO cells (membranes); conditions: CHO cell membranes, 0.5 nM [3H][Ile5,6]deltorphin-2, 25 °C, 120 min; mean ± SEM of four experiments in duplicate; read-out: Ki DOR
Method: (§1) The opioid receptor binding assays were performed using the modified method described elsewhere. Briefly, commercial membranes of Chinese Hamster Ovary (CHO) cells transfected with human opioid receptors were used. The binding affinities for µ-, δ- and κ-opioid receptors were determined by radioligand competition analysis using [^3H]DAMGO, [^3H]deltorphin-2, and [^3H]U-69593, respectively. Membranes were incubated at 25 °C for 120 min with appropriate concentrations of a tested peptide in the presence of 0.5 nM radioligand in a total volume of 0.5 mL of 50 mM Tris/HCl (pH 7.4) containing bovine serum albumin (BSA) (1 mg/mL), bacitracin (50 µg/mL), bestatin (30 µM), and captopril (10 µM). Non-specific binding was determined in the presence of 1 µM naloxone. Incubations were terminated by the rapid filtration through the GF/B Whatman (Brentford, UK) glass fibre strips (pre-soaked for 2 h in 0.5% (v/v) […]) using Millipore Sampling Manifold (Billerica, MA, USA). The filters were washed thrice with 4 mL of ice-cold Tris buffer solution. Packard Tri-Carb 2100 TR liquid scintillation counter (Ramsey, MN, USA) was used to measure the bound radioactivity after overnight extraction of the filters in 4 mL of a Perkin Elmer Ultima Gold scintillation fluid (Wellesley, MA, USA). The data were analyzed by a nonlinear least square regression analysis computer program Graph Pad PRISM 6.0 (Graph Pad Software Inc., San Diego, CA, USA). The values of the inhibitory constants (Ki) were calculated according to the equation of Cheng and Prusoff.
(§2) The ability of R-6 and its new analogs to bind to µ-, δ- and κ-opioid receptors was determined by competitive binding assays against [^3H]DAMGO, [^3H][Ile^5,6]deltorphin-2 and [^3H]U-69593, respectively, using membranes of CHO cells transfected with opioid receptors and are summarized in Table 2.

κ-opioid receptor = biological target: T2, κ-opioid receptor (Homo sapiens, UniProt P41145); assay: Opioid receptor binding assay, [3H]U-69593 competition; conditions: CHO cell membranes, 0.5 nM [3H]U-69593, 25 °C, 120 min; mean ± SEM of four experiments in duplicate; read-out: Ki KOR
T2 construct: purchased; host or cells: CHO cells (membranes)
Method: as §1, §2

[2] = tested on: LPS-stimulated RAW 264.7 cells; assay: Intracellular ROS formation in LPS-stimulated RAW 264.7 cells; type: cell-based, mouse; conditions: LPS-stimulated, 24 h; for decrease of ROS levels: peptides 0.1-10 µM
Method: The cytotoxic and anti-inflammatory effects of peptides on RAW 264.7 cells were estimated using MTT assay. Cells were incubated with peptides (0.1–10 µM) for 24 h to assess their cytoprotective activity. In the anti-inflammatory model, RAW 264.7 cells were exposed to LPS (Millipore Sigma, Darmstadt, Germany) at 1 µg/mL in the absence/presence of peptide at non-toxic concentrations (0.1–10 µM). Then, the MTT reagent was added to wells, and cells were incubated for 1.5 h at 37 °C. After this time, MTT was removed, 100 µL DMSO was added, and the resulting absorbance was read in a microplate reader (Synergy 2 BioTek Microplate Reader, Winooski, VT, USA) at 570 nm.
The detection of ROS generated in injured cells was evaluated using the 5(6)-carboxy-2ʹ,7ʹ-dichlorofluorescein diacetate (carboxy-H2DCFDA) reagent (Invitrogen, Bleiswijk, Netherlands). After incubation, cells were washed with ice-cold Phosphate-Buffer Saline (PBS). Then, the carboxyl-H2DCFDA (100 µL, 20 µM) reagent was added and incubated for 1 h at 37 °C. Finally, the fluorescence intensity was measured at wavelengths of […], and ROS levels were presented in percentage of control (non-treated cells).

δ-opioid receptor [3] = biological target: T1, δ-opioid receptor; assay: Calcium mobilisation assay, CHO cells with GαqG66Di5; type: cell-based; parameters: expressed in transfected cells; host or cells: CHO cells; gift from Prof; Girolamo Calo, University of Padova; conditions: for δ-opioid receptors pEC50 (CL95%): agonist potency, mean ± SEM of three experiments in triplicate; for δ-opioid receptors pEC50 (CL95%) / δ-opioid receptors α ± SEM: Inactive = inactive as an agonist up to 1 µM; for δ-opioid receptors α ± SEM: intrinsic activity, Emax ratio to DPDPE; for EC50: read-out: δ-opioid receptors pEC50 (CL95%) (converted)
Method: Chinese Hamster Ovary (CHO) cells stably co-expressing human recombinant µ- or κ-opioid receptors and the C-terminally modified Gαqi5, and CHO cells co-expressing the human recombinant δ-opioid receptors and the GαqG66Di5 chimeric protein (a generous gift from Prof. Girolamo Calo, University of Padova, Italy) were used in calcium mobilization assay, that was performed as reported in detail elsewhere. Cells were cultured in Dulbecco’s Modified Eagle’s Medium (DMEM)/Ham’s F12 (1:1) culture medium supplemented with 10% (v/v) Fetal Bovine Serum (FBS), penicillin (100 IU/mL), streptomycin (100 µg/mL), L-glutamine (2 mM), fungizone (1 µg/mL), geneticin (G418; 200 µg/mL) and hygromycin B (100 µg/mL). Cell cultures were kept at 37 °C in 5% CO2/humidified air. When confluence was reached (3–4 days), cells were seeded at a density of 50,000 cells/well into 96-well black, clear-bottom plates. After 24 h incubation, the cells were loaded with a medium supplemented with probenecid (2.5 mM), calcium-sensitive fluorescent dye Fluo-4 AM (3 µM), pluronic acid (0.01%), and HEPES (20 mM) and kept for 30 min at 37 °C. Then, the loading solution was aspirated, and 100 µL/well of assay buffer (HBSS supplemented with 20 mM HEPES, 2.5 mM probenecid, and 500 µM Brilliant Black) was added.
The tested peptides were diluted in the HBSS/HEPES (20 mM) buffer (containing 0.005% BSA) and placed into 96-well plates. The range of concentrations tested was 10 µM–1 × 10^–6 µM. After placing both plates (cell culture and compound plate) into the FlexStation II (Molecular Device, Union City, CA, USA), the online additions were carried out in a volume of 50 µL/well and the fluorescence changes were measured.
Concentration–response curves were fitted with the four-parameter logistic, nonlinear regression model: Effect=baseline+Emax- baseline/1+10^logEC50- Xn where X is the agonist concentration and n is the Hill coefficient. Ligand efficacies, expressed as the intrinsic activity (α), were calculated as the Emax ratio of the tested compound and the standard agonist.

CC(C)C[C@H](NC(=O)C1CCN(C(=O)[C@@H](N)Cc2ccc(O)cc2)CC1)C(=O)N[C@@H](CC(=O)O)C(=O)N[C@@H](CC(C)C)C(=O)N[C@@H](Cc1ccccc1)C(=O)O [analog 3, Tyr-Inp-Leu-Asp-Leu-Phe-OH] (H-Y[Inp]LDLF-OH)
Ki (δ-opioid receptor [1]): 0.734 ± 0.0313 µM | Ki (κ-opioid receptor): > 1 µM | effect on ROS levels ([2]; peptide 0.1 µM): protective effect | δ-opioid receptors pEC50 (CL95%) (δ-opioid receptor [3]): Inactive | δ-opioid receptors α ± SEM (δ-opioid receptor [3]): Inactive

Cc1cc(O)cc(C)c1C[C@H](N)C(=O)N1CCC[C@@H](C(=O)N[C@@H](CC(C)C)C(=O)N[C@@H](CC(=O)O)C(=O)N[C@@H](CC(C)C)C(=O)N[C@@H](Cc2ccccc2)C(=O)O)C1 [analog 4, Dmt-(R)-Nip-Leu-Asp-Leu-Phe-OH] (H-[Dmt][Nip(3R)]LDLF-OH)
Ki (δ-opioid receptor [1]): > 1 µM | Ki (κ-opioid receptor): > 1 µM | decrease of ROS levels ([2]; DCFH-DA): ≤ 40% | δ-opioid receptors pEC50 (CL95%) (δ-opioid receptor [3]): Inactive | δ-opioid receptors α ± SEM (δ-opioid receptor [3]): Inactive

CC(C)C[C@H](NC(=O)C1CCN(C(=O)[C@@H](N)Cc2ccc(O)cc2)CC1)C(=O)N[C@@H](CC(=O)O)C(=O)N[C@@H](CC(C)C)C(=O)N[C@@H](Cc1ccccc1)C(N)=O [analog 7, Tyr-Inp-Leu-Asp-Leu-Phe-NH2] (H-Y[Inp]LDLF-NH2)
Ki (δ-opioid receptor [1]): 0.773 ± 0.137 µM | Ki (κ-opioid receptor): > 1 µM | reduction of ROS levels ([2]; peptide 0.1 µM, DCFH-DA): about 50% | δ-opioid receptors pEC50 (CL95%) (δ-opioid receptor [3]): Inactive | δ-opioid receptors α ± SEM (δ-opioid receptor [3]): Inactive

Cc1cc(O)cc(C)c1C[C@H](N)C(=O)N1CCC(C(=O)N[C@@H](CC(C)C)C(=O)N[C@@H](CC(=O)O)C(=O)N[C@@H](CC(C)C)C(=O)N[C@@H](Cc2ccccc2)C(=O)O)CC1 [analog 5, Dmt-Inp-Leu-Asp-Leu-Phe-OH] (H-[Dmt][Inp]LDLF-OH)
Ki (δ-opioid receptor [1]): 0.0131 ± 0.00308 µM | Ki (κ-opioid receptor): > 1 µM | effect on ROS levels ([2]; peptide 0.1 µM): protective effect | δ-opioid receptors α ± SEM (δ-opioid receptor [3]): 0.39 ± 0.02 | EC50 (δ-opioid receptor [3]): 22.4 µM

YPLDLF [R-6, rubiscolin-6]
Ki (δ-opioid receptor [1]): 0.0115 ± 0.00225 µM | Ki (κ-opioid receptor): > 1 µM | decrease of ROS levels ([2]; DCFH-DA): ≤ 40% | EC50 (δ-opioid receptor [3]): 5.62 µM

Cc1cc(O)cc(C)c1C[C@H](N)C(=O)N1CCC[C@H]1C(=O)N[C@@H](CC(C)C)C(=O)N[C@@H](CC(=O)O)C(=O)N[C@@H](CC(C)C)C(=O)N[C@@H](Cc1ccccc1)C(=O)O [analog 1, Dmt-Pro-Leu-Asp-Leu-Phe-OH] (H-[Dmt]PLDLF-OH)
Ki (δ-opioid receptor [1]): 0.0917 ± 0.0297 µM | Ki (κ-opioid receptor): > 1 µM | decrease of ROS levels ([2]; DCFH-DA): ≤ 40% | δ-opioid receptors pEC50 (CL95%) (δ-opioid receptor [3]): Inactive | δ-opioid receptors α ± SEM (δ-opioid receptor [3]): Inactive

CC(C)C[C@H](NC(=O)[C@@H]1CCCN(C(=O)[C@@H](N)Cc2ccc(O)cc2)C1)C(=O)N[C@@H](CC(=O)O)C(=O)N[C@@H](CC(C)C)C(=O)N[C@@H](Cc1ccccc1)C(=O)O [analog 2, Tyr-(R)-Nip-Leu-Asp-Leu-Phe-OH] (H-Y[Nip(3R)]LDLF-OH)
Ki (δ-opioid receptor [1]): > 1 µM | Ki (κ-opioid receptor): > 1 µM | decrease of ROS levels ([2]; DCFH-DA): ≤ 40% | δ-opioid receptors pEC50 (CL95%) (δ-opioid receptor [3]): Inactive | δ-opioid receptors α ± SEM (δ-opioid receptor [3]): Inactive

YPLDLF-NH2 [analog 6, Tyr-Pro-Leu-Asp-Leu-Phe-NH2]
Ki (δ-opioid receptor [1]): > 1 µM | Ki (κ-opioid receptor): > 1 µM | δ-opioid receptors pEC50 (CL95%) (δ-opioid receptor [3]): Inactive | δ-opioid receptors α ± SEM (δ-opioid receptor [3]): Inactive
